This note sets out measurements from patent publication US11000511B2, “Chemical compounds as antibiotics” (priority 2017, dated 2021).

What is called Ki is the equilibrium dissociation constant of an inhibitor or competing ligand from its target.

Assay [1] has as its target T1, purified LasB protein from P. aeruginosa (Pseudomonas aeruginosa, UniProt P14756).
T1 construct: purchased Merck or Charles River Laboratories
Nature of the assay: Fluorometric assay to determine Ki (Assay 2). The format is biochemical. The method, then:
(§1) Experiments were therefore conducted (1) to measure the potency of inhibition of compounds of the invention against purified Pseudomonas aeruginosa LasB enzyme and also experiments were conducted (2) to measure the ability of compounds of the invention to inhibit LasB-catalysed elastin degradation. The first assay uses a commercial fluorescent synthetic peptide and purified LasB enzyme. The LasB hydrolysis kinetics are measured allowing the determination of the IC50 and Ki of the inhibitors; the second is a more physiological assay using dialysed Pseudomonas aeruginosa supernatant as source of enzyme, plus its natural substrate Elastin. It is an “end point assay” that determines the percentage of LasB inhibition by each compound for one particular time point and inhibitor concentration. Technical details are described below:
This assay uses commercially available substrate (Abz-Ala-Gly-Leu-Ala-p-Nitro-Benzyl-Amide (Ex: 340 nm, Em: 415 nm) from Peptide International) and purified LasB protein from P. aeruginosa (provided by Merck or Charles River Laboratories). It is performed to determine LasB elastase activity and assess compound inhibition in 96-well plate format. Some compounds of Formula (I) were assessed using the method of Assay 1 (described below). Other compounds of Formula (I) were assessed using the alternative but equivalent method of Assay 2 (described below).
Method: 10 to 140 ng/ml purified LasB is incubated with 250 μM Abz-Ala-Gly-Leu-Ala-p-Nitro-Benzyl-Amide in 50 mM Tris-HCl pH 7.4, 2.5 mM CaCl2), 0.01% of Triton X100 at 37° C. LasB activity (corresponding to fluorescence emission induced by substrate hydrolysis) is measured over 30 min at 37° C. with a fluorescence plate reader such as the Perkin Elmer Envision or similar. Different range of inhibitor concentrations are routinely assessed depending of inhibitor potency from 0.006 to 200 μM (Assay 1; 2-fold dilutions series) or from 0.0016 to 200 μM (Assay 2; 2-fold dilutions series) in order to determine IC50.
The equation used to calculate the Ki from IC50 is: Ki=IC50/(1+([S]/Km)) where [S]=250 μM and Km=214 μM.

The target in assay [2] is T2, LasB elastase activity in dialysed supernatant from P. aeruginosa strain PA01 (Pseudomonas aeruginosa, UniProt P14756).
T2 construct: uses as source of enzyme dialysed supernatant from P. aeruginosa; endogenous in cells; host or cells: P. aeruginosa strain PA01 culture supernatant, filtered and dialysed
Nature of the assay: Elastin Congo Red assay to determine % inhibition (Assay 2). Particulars: read-out: Elastin hydrolysis % inhibition @ 50/25 μM inhibitor concentration Assay 2. The format is biochemical. The procedure:
as §1
The Elastin assay uses as source of enzyme dialysed supernatant from P. aeruginosa and the elastin congo red as substrate. The natural LasB substrate, elastin, is complexed with the congo red dye (Elastin Congo Red, ECR). The elastolysis activity from the culture supernatant will degrade elastin and release the congo red dye into the supernatant. This red dye release can be measured with a spectrophotometer. Some compounds of Formula (I) were assessed using the method of Assay 1 (described below). Other compounds of Formula (I) were assessed using the alternative but equivalent method of Assay 2 (described below).
Method (Assay 2): To determine LasB elastase activity and assess compound inhibition, an overnight culture of P. aeruginosa strain PA01 is diluted in LB medium. After reaching an OD600 nm of 0.6, this culture is diluted and incubated for additional 18-24 h in a shaking incubator. Culture supernatants are recovered by centrifugation and filtrated through a […] filter. These supernatants are dialysed (filtration molecules <20 kDa) into a 50 mM Tris-HCl pH 7.4, 2.5 mM CaCl2 solution at 4° C. under agitation for 24 h. Supernatant dialysed is then mixed volume/volume with the ECR suspension (20 mg/mL of ECR in 100 mM Tris-HCl pH 7.4 buffer supplemented with 1 mM CaCl2) supplemented with TritonX 100 (final concentration of 0.01%) in presence of DMSO (positive control) and/or different concentrations of compound (routinely […]). As a negative control, the dialysed supernatant is replaced by Tris-HCl solution (50 mM Tris-HCl pH 7.4, 2.5 mM CaCl2). The mixed reaction is then incubated overnight in a 37° C. shaking incubator. The reaction supernatant is recovered by centrifugation and the release of congo-red is measured by its absorbance at 495 nm (OD495 nm).
Percentage inhibition is determined using the following equation: ((OD495 nm value of positive control−OD495 nm value of negative control)−(OD495 nm value of treated supernatant−OD495 nm value of negative control))/(OD495 nm value of positive control−OD495 nm value of negative control)×100.

A value given as a limit tells only on which side of the number the result lay.

T1 sequence (P14756 198-498): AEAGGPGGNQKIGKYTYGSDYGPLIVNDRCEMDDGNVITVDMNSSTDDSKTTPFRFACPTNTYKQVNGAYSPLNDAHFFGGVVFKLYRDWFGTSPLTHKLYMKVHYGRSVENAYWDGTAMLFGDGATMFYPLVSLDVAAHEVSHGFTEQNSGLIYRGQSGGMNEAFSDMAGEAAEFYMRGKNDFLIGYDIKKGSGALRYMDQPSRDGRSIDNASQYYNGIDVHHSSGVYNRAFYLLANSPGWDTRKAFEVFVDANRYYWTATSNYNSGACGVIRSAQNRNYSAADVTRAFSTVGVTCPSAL
T2 sequence (P14756 198-498): as above

Molecule `COc1cc2sc(CNC(=O)C3(CC(=O)O)Cc4ccccc4C3)nc2cc1N1CC([N+](C)(C)C)C1` [Example 123, 2-(2-(((6-methoxy-5-(3-(trimethylammonio)azetidin-1-yl)benzo[d]thiazol-2-yl)methyl)carbamoyl)-2,3-dihydro-1H-inden-2-yl)acetate] had an inhibition constant (Ki) in assay [1] of less than 300 nM. Besides, the inhibition at 50 µM in assay [2] is more than 60%.
Take `O=C(O)CC1(C(=O)NCc2nc3ccccc3s2)Cc2cc(F)c(F)cc2C1` [Example 120, 2-(2-((benzo[d]thiazol-2-ylmethyl)carbamoyl)-5,6-difluoro-2,3-dihydro-1H-inden-2-yl)acetic acid]: the Ki in assay [1] was less than 300 nM. In addition, in assay [2], the inhibition at 50 µM is more than 60%.
On the same counts, the results for `O=C(O)CC1(C(=O)NCc2nc3cc4c(cc3s2)OCO4)Cc2ccccc2C1` [Example 115, 2-[2-([1,3]dioxolo[4,5-f][1,3]benzothiazol-6-ylmethylcarbamoyl)indan-2-yl]acetic acid] are less than 300 nM and more than 60%.
Molecule `O=C(O)CC1(C(=O)NCc2nc3ccc(OCCO)cc3s2)Cc2ccccc2C1` [Example 109, 2-[2-[[6-(2-hydroxyethoxy)-1,3-benzothiazol-2-yl]methylcarbamoyl]indan-2-yl]acetic acid] displayed a Ki in assay [1] of less than 300 nM. For the same molecule, the inhibition at 50 µM in assay [2] was more than 60%.
Consider `CCOc1ccc2nc(CNC(=O)C3(CC(=O)O)Cc4ccccc4C3)sc2c1` [Example 108, 2-[2-[(6-ethoxy-1,3-benzothiazol-2-yl)methylcarbamoyl]indan-2-yl]acetic acid], for which, in assay [1], the inhibition constant Ki was less than 300 nM. In addition, the inhibition at 50 µM in assay [2] is more than 60%.
Take `O=C(O)CC1(C(=O)NCc2nc3ccc(OC(F)(F)F)cc3s2)Cc2ccccc2C1` [Example 128, 2-[2-[[6-(trifluoromethoxy)-1,3-benzothiazol-2-yl]methylcarbamoyl]indan-2-yl]acetic acid]: the Ki in assay [1] was less than 300 nM. Further, in assay [2], the inhibition at 50 µM was more than 60%.
On the same counts, the results for `COc1cc2nc(CNC(=O)C3(CC(=O)O)Cc4ccccc4C3)sc2cc1OC` [Example 114, 2-[2-[(5,6-dimethoxy-1,3-benzothiazol-2-yl)methylcarbamoyl]indan-2-yl]acetic acid] are less than 300 nM and more than 60%.
Consider `COc1cc2sc(CNC(=O)C3(CC(=O)O)Cc4cc(F)c(F)cc4C3)nc2cc1OCCC[N+](C)(C)C` [Example 125, 2-(5,6-difluoro-2-(((6-methoxy-5-(3-(trimethylammonio)propoxy)benzo[d]thiazol-2-yl)methyl)carbamoyl)-2,3-dihydro-1H-inden-2-yl)acetate], for which, in assay [1], the Ki is less than 300 nM. Also, the inhibition at 50 µM in assay [2] was more than 60%.
In assay [1], `COc1cc2sc(CNC(=O)C3(CC(=O)O)Cc4cc(F)c(F)cc4C3)nc2cc1OCCCN(C)C` [Example 124, 2-(2-(((5-(3-(dimethylamino)propoxy)-6-methoxybenzo[d]thiazol-2-yl)methyl)carbamoyl)-5,6-difluoro-2,3-dihydro-1H-inden-2-yl)acetic acid] gave an inhibitory constant (Ki) of less than 300 nM. For the same molecule, the inhibition at 50 µM in assay [2] was more than 60%.
The like results for `O=C(O)CC1(C(=O)NCc2nc3ccc(O)cc3s2)Cc2ccccc2C1` [Example 107, 2-[2-[(6-hydroxy-1,3-benzothiazol-2-yl)methylcarbamoyl]indan-2-yl]acetic acid] were, in that order, less than 300 nM and more than 60%.
On the same counts, the results for `COc1cc2sc(CNC(=O)C3(CC(=O)O)Cc4ccccc4C3)nc2cc1N1CC(N(C)C)C1` [Example 122, 2-(2-(((5-(3-(dimethylamino)azetidin-1-yl)-6-methoxybenzo[d]thiazol-2-yl)methyl)carbamoyl)-2,3-dihydro-1H-inden-2-yl)acetic acid] are less than 300 nM and more than 60%.
On the same counts, the results for `COc1cc2sc(CNC(=O)C3(CC(=O)O)Cc4ccccc4C3)nc2cc1OCCN(C)C` [Example 126, 2-(2-(((5-(2-(dimethylamino)ethoxy)-6-methoxybenzo[d]thiazol-2-yl)methyl)carbamoyl)-2,3-dihydro-1H-inden-2-yl)acetic acid] are less than 300 nM and more than 60%.
